What was measured:
[1] = test system: mouse; conditions: Subchronic oral toxicity in rodents, b6c3f1, Feed, dose end: 13 week, group: systemic
[2] = test system: rat; conditions: Sub-acute repeat dose toxicity, fischer, Oral, Feed, dose end: 14 day, group: systemic
[3] = test system: rabbit; conditions: Prenatal developmental toxicity study, new zealand white, Oral, Gavage/Intubation, dose end: 19 GD
[4] = test system: mouse; conditions: Multigenerational reproductive toxicity study, cd1, Oral, Feed, dose end: 2 generation
[5] = test system: mouse; conditions: Prenatal developmental toxicity study, cd1, Oral, Feed, dose end: 15 GD
[6] = test system: rat; conditions: Subchronic oral toxicity in rodents, fischer, Feed, dose end: 13 week, group: systemic
[7] = test system: rat; conditions: Carcinogenicity; fischer; Oral; Feed; dose end: 103 week; group: systemic; systemic / in life observation / clinical signs / muscle fasciculation + systemic / in life observation / clinical signs / skeletal muscle …
[8] = test system: mouse; conditions: Carcinogenicity; b6c3f1; Oral; Feed; dose end: 103 week; group: systemic; systemic / in life observation / clinical signs / [other] + systemic / pathology microscopic / ovary / atrophy + systemic / pathology …
[9] = test system: mouse; conditions: Sub-acute repeat dose toxicity, b6c3f1, Oral, Feed, dose end: 14 day, group: systemic
[10] = test system: mouse; conditions: Sub-acute repeat dose toxicity, b6c3f1, Oral, Gavage/Intubation, dose end: 14 day, group: systemic
[11] = test system: rat; conditions: Sub-acute repeat dose toxicity, fischer, Oral, Gavage/Intubation, dose end: 14 day, group: systemic
[12] = test system: rat; conditions: Carcinogenicity, fischer, Oral, Gavage/Intubation, dose end: 103 week, group: systemic
[13] = test system: rat; conditions: Subchronic oral toxicity in rodents, fischer, Gavage/Intubation, dose end: 13 week, group: systemic
[14] = test system: mouse; conditions: Subchronic oral toxicity in rodents, b6c3f1, Gavage/Intubation, dose end: 13 week, group: systemic
[15] = test system: mouse; conditions: Carcinogenicity, b6c3f1, Oral, Gavage/Intubation, dose end: 103 week, group: systemic
[16] = test system: dog; conditions: Chronic toxicity; beagle; Oral; Feed; dose end: 52 week; group: systemic; systemic / clinical chemistry / albumin / albumin + systemic / clinical chemistry / cholesterol / cholesterol + systemic / clinical …
[17] = test system: rat; conditions: Combined chronic toxicity/carcinogenicity, sprague dawley, Oral, Feed, dose end: 104 week, group: systemic
[18] = test system: rat; conditions: Multigenerational reproductive toxicity study, sprague dawley, Oral, Feed, dose end: 2 generation
[19] = test system: mouse; conditions: Carcinogenicity; cd1; Oral; Feed; dose end: 97 week; group: systemic; systemic / in life observation / body weight / body weight + systemic / in life observation / body weight / body weight gain + systemic / …
[20] = test system: dog; conditions: Subchronic oral toxicity in nonrodent, beagle, Feed, dose end: 90 day, group: systemic, systemic / clinical chemistry / albumin / albumin + systemic / clinical chemistry / calcium / calcium + systemic / clinical chemistry / …
[21] = test system: rat; conditions: Prenatal developmental toxicity study, sprague dawley, Oral, Gavage/Intubation, dose end: 15 GD
[22] = systemic / in life observation / body weight / body weight + systemic / in life observation / body weight / body weight gain + systemic / in…
[23] = systemic / in life observation / body weight / body weight gain + systemic / in life observation / clinical signs / [other] + systemic / in …
[24] = systemic / in life observation / clinical signs / lethargy + systemic / in life observation / clinical signs / fur (altered appearance) + …
[25] = group: developmental, developmental / developmental malformation / general / [other]
[26] = group: maternal, reproductive / reproductive performance / resorptions / resorptions + systemic / in life observation / body weight / body weight + systemic…
[27] = group: offspring, systemic / in life observation / clinical signs / cannibalism
[28] = group: offspring, systemic / in life observation / clinical signs / cannibalism + developmental / offspring survival late / [other] / [other] + systemic / in …
[29] = group: parental, systemic / in life observation / body weight / body weight + systemic / in life observation / clinical signs / cannibalism + systemic / in …
[30] = group: parental, systemic / in life observation / food consumption / food consumption + systemic / in life observation / water consumption / water …
[31] = group: reproductive, reproductive / offspring survival early / birth index / birth index + reproductive / reproductive performance / dystocia / dystocia + …
[32] = group: reproductive, reproductive / reproductive performance / estrous cycle / abnormal
[33] = group: developmental, systemic / in life observation / body weight / fetal weight
[34] = group: maternal, reproductive / offspring survival early / dead fetuses / dead fetuses
[35] = systemic / in life observation / clinical signs / [other]
[36] = systemic / in life observation / clinical signs / [other] + systemic / in life observation / clinical signs / fur (altered appearance) + …
[37] = systemic / in life observation / body weight / body weight
[38] = systemic / in life observation / body weight / body weight + systemic / in life observation / clinical signs / abnormal posture + systemic…
[39] = systemic / pathology microscopic / liver / vacuolization cytoplasmic + systemic / pathology microscopic / liver / degeneration
[40] = systemic / pathology microscopic / liver / vacuolization cytoplasmic + systemic / pathology microscopic / liver / degeneration + systemic / …
[41] = systemic / pathology microscopic / liver / necrosis + systemic / pathology microscopic / liver / vacuolization cytoplasmic + systemic / in …
[42] = systemic / pathology microscopic / liver / vacuolization cytoplasmic
[43] = systemic / pathology microscopic / liver / vacuolization cytoplasmic + systemic / in life observation / body weight / body weight + systemic…
[44] = systemic / pathology microscopic / liver / vacuolization cytoplasmic + systemic / in life observation / clinical signs / defecation (…
[45] = systemic / hematology / erythrocyte (rbc) count differential / erythrocyte (rbc) + systemic / hematology / hematocrit (hct) / hematocrit (…
[46] = group: offspring, systemic / in life observation / body weight / offspring (pup) weight + systemic / in life observation / body weight / offspring (pup) …
[47] = group: parental, systemic / in life observation / body weight / body weight gain
[48] = group: parental, systemic / in life observation / body weight / body weight gain + systemic / in life observation / body weight / body weight + systemic / in…
[49] = group: developmental, developmental / developmental malformation / bone / incomplete ossification
[50] = group: developmental, developmental / developmental malformation / bone / incomplete ossification + developmental / developmental malformation / bone / short …
[51] = group: maternal, systemic / in life observation / body weight / body weight gain + systemic / in life observation / clinical signs / [other] + systemic / in …

Compound: NC(=O)N/N=C/c1ccc([N+](=O)[O-])o1 [Nitrofurazone]
- LOAEL [1, 22]: > 188 mg/kg/day
- NEL [1, 22]: 46.5 mg/kg/day
- NOAEL [1, 22]: ≥ 188 mg/kg/day
- LEL ([1]; systemic / in life observation / clinical signs / [other] + systemic / in life observation / clinical signs / excitation + systemic / in …): 93 mg/kg/day
- LOAEL [2, 23]: 125 mg/kg/day
- NOAEL [2, 23]: 62.5 mg/kg/day
- LEL [2, 24]: 31.5 mg/kg/day
- NEL [2, 24]: < 31.5 mg/kg/day
- LEL [3, 25]: 20 mg/kg/day
- LOAEL [3, 25]: 20 mg/kg/day
- NEL [3, 25]: 15 mg/kg/day
- NOAEL [3, 25]: 15 mg/kg/day
- LOAEL ([3]; group: maternal, reproductive / reproductive performance / resorptions / resorptions): 20 mg/kg/day
- NEL [3, 26]: 5 mg/kg/day
- NOAEL [3, 26]: 15 mg/kg/day
- LEL ([3]; group: maternal, systemic / in life observation / body weight / body weight): 10 mg/kg/day
- LEL [4, 27]: 15 mg/kg/day
- NEL [4, 27]: < 15 mg/kg/day
- LOAEL [4, 28]: > 112 mg/kg/day
- NOAEL [4, 28]: ≥ 112 mg/kg/day
- LOAEL [4, 29]: > 112 mg/kg/day
- NOAEL [4, 29]: ≥ 112 mg/kg/day
- LEL [4, 30]: 15 mg/kg/day
- NEL [4, 30]: < 15 mg/kg/day
- LOAEL [4, 31]: > 112 mg/kg/day
- NOAEL [4, 31]: ≥ 112 mg/kg/day
- LEL [4, 32]: 15 mg/kg/day
- NEL [4, 32]: < 15 mg/kg/day
- LEL [5, 33]: 81.7 mg/kg/day
- LOAEL [5, 33]: > 81.7 mg/kg/day
- NEL [5, 33]: 41.2 mg/kg/day
- NOAEL [5, 33]: ≥ 81.7 mg/kg/day
- LEL [5, 34]: 41.2 mg/kg/day
- LOAEL [5, 34]: 41.2 mg/kg/day
- NEL [5, 34]: 13.6 mg/kg/day
- NOAEL [5, 34]: 13.6 mg/kg/day
- NEL ([6]; systemic / organ weight / liver / relative to body weight + systemic / in life observation / body weight / body weight + systemic / in life …): 7.5 mg/kg/day
- LOAEL ([6]; systemic / pathology microscopic / testes / degeneration): 15.5 mg/kg/day
- NOAEL ([6]; systemic / pathology microscopic / testes / degeneration + systemic / in life observation / body weight / body weight + systemic / in life …): 7.5 mg/kg/day
- LEL ([6]; systemic / pathology microscopic / testes / degeneration + systemic / organ weight / liver / relative to body weight): 15.5 mg/kg/day
- LEL [7]: 11 mg/kg/day
- LOAEL [7]: 11 mg/kg/day
- NEL [7]: < 11 mg/kg/day
- NOAEL [7]: < 11 mg/kg/day
- LEL [8]: 14 mg/kg/day
- LOAEL [8]: 14 mg/kg/day
- NEL [8]: < 14 mg/kg/day
- NOAEL [8]: < 14 mg/kg/day
- LOAEL [9, 35]: 94.5 mg/kg/day
- NOAEL [9, 35]: < 94.5 mg/kg/day
- LEL [9, 36]: 94.5 mg/kg/day
- NEL [9, 36]: < 94.5 mg/kg/day

Compound: OC[P+](CO)(CO)CO.[Cl-] [Tetrakis(hydroxymethyl)phosphonium chloride]
- LEL [10, 37]: 18.8 mg/kg/day
- LOAEL [10, 37]: 150 mg/kg/day
- NEL [10, 37]: < 18.8 mg/kg/day
- NOAEL ([10]; systemic / in life observation / body weight / body weight + systemic / in life observation / mortality / mortality): 75 mg/kg/day
- LEL [11, 37]: 18.8 mg/kg/day
- LOAEL [11, 37]: 37.5 mg/kg/day
- NEL [11, 38]: 9.4 mg/kg/day
- NOAEL [11, 38]: 18.8 mg/kg/day
- LOAEL [12, 39]: 3.75 mg/kg/day
- NOAEL [12, 39]: < 3.75 mg/kg/day
- LEL [12, 40]: 3.75 mg/kg/day
- NEL [12, 40]: < 3.75 mg/kg/day
- NEL ([13]; systemic / in life observation / body weight / body weight + systemic / pathology microscopic / liver / necrosis + systemic / pathology …): 3.75 mg/kg/day
- LOAEL [13, 41]: 30 mg/kg/day
- NOAEL [13, 41]: 15 mg/kg/day
- LEL [13, 42]: 7.5 mg/kg/day
- LEL [14, 42]: 15 mg/kg/day
- NEL [14, 43]: 4.5 mg/kg/day
- NOAEL [14, 43]: 15 mg/kg/day
- LOAEL ([14]; systemic / pathology microscopic / liver / vacuolization cytoplasmic + systemic / pathology microscopic / liver / necrosis): 45 mg/kg/day
- LOAEL [15, 42]: 7.5 mg/kg/day
- NOAEL [15, 42]: < 7.5 mg/kg/day
- LEL [15, 44]: 7.5 mg/kg/day
- NEL [15, 44]: < 7.5 mg/kg/day

Compound: CN(C)C(=S)SSC(=S)N(C)C [Thiram]
- LEL [16]: 0.84 mg/kg/day
- LOAEL [16]: 0.84 mg/kg/day
- NEL [16]: < 0.84 mg/kg/day
- NOAEL [16]: < 0.84 mg/kg/day
- LEL [17, 45]: 1.8 mg/kg/day
- NEL [17, 45]: < 1.8 mg/kg/day
- LOAEL ([17]; systemic / in life observation / body weight / body weight gain): 7.3 mg/kg/day
- NOAEL ([17]; systemic / in life observation / body weight / body weight gain + systemic / clinical chemistry / glucose / glucose + systemic / hematology…): 1.5 mg/kg/day
- LEL [18, 46]: 4.9 mg/kg/day
- LOAEL [18, 46]: 4.9 mg/kg/day
- NEL [18, 46]: 1.7 mg/kg/day
- NOAEL [18, 46]: 1.7 mg/kg/day
- LEL [18, 47]: 4.7 mg/kg/day
- LOAEL [18, 47]: 4.7 mg/kg/day
- NEL [18, 48]: 1.6 mg/kg/day
- NOAEL [18, 48]: 1.6 mg/kg/day
- LEL [19]: 24 mg/kg/day
- LOAEL [19]: 24 mg/kg/day
- NEL [19]: 2.5 mg/kg/day
- NOAEL [19]: 2.5 mg/kg/day
- LEL [20]: 2.26 mg/kg/day
- LOAEL [20]: 7.01 mg/kg/day
- NEL [20]: < 2.26 mg/kg/day
- NOAEL [20]: 2.26 mg/kg/day
- LEL [21, 49]: 7.5 mg/kg/day
- NEL [21, 49]: < 7.5 mg/kg/day
- LOAEL [21, 50]: 15 mg/kg/day
- NOAEL [21, 50]: 7.5 mg/kg/day
- LEL [21, 51]: 7.5 mg/kg/day
- LOAEL [21, 51]: 7.5 mg/kg/day
- NEL [21, 51]: < 7.5 mg/kg/day
- NOAEL [21, 51]: < 7.5 mg/kg/day
